Read-outs that look alike come from different tables or passages of the source.
What was measured:
[1] = target: human orexin 1 receptor (Homo sapiens, UniProt O43613); experiment: Human orexin 1 receptor radioligand binding; details: read-out: hOX1 Ki
Protocol: (§1) Rat and Human Orexin 1 Receptor Radioligand Binding Studies
(§2) After centrifugation (2K×G, 5 min at 4° C.), the supernatant was aspirated and the pellets frozen and stored at −80° C. […] Each cell pellet from a 15 cm plate was resuspended in 10 mL, stored on ice, and homogenized for 45 sec prior to addition to the reactions. […] The final concentration of DMSO in the reactions is equal to or less than 0.1%. Total and nonspecific binding was determined in the absence and presence of 10 μM almorexant. The total volume of each reaction is 200 μL (20 μL of diluted compounds, 80 μL of [^3H]-(1-(5-(2-fluoro-phenyl)-2-methyl-thiazol-4-yl)-1-((S)-2-(5-phenyl-(1,3,4)oxadiazol-2-ylmethyl)-pyrrolidin-1-yl)-methanone) diluted in PBS and 100 μL of the cell suspension). […] The plates were washed 3 times by aspirating 30 ml PBS through the plates. Plates were dried in 55° C. oven for 60 min, scintillation fluid was added, and the radioactivity was counted on a Topcount (Packard).

[2] = target: human orexin 2 receptor (Homo sapiens (Human), UniProt O43614); experiment: Human orexin 2 receptor radioligand binding; details: read-out: hOX2 Ki
Protocol: Human Orexin 2 Receptor Radioligand Binding Studies
as §2, with “sec just” for “sec”, “reactions. Competition binding experiments in 96 well polypropylene plates were performed using [^3H]-EMPA (Moraveck Corporation, specific activity=29.6 Ci/mmol), diluted to a 5 nM concentration in PBS (2 nM final concentration).” for “reactions.”, “[^3H]-EMPA” for “[^3H]-(1-(5-(2-fluoro-phenyl)-2-methyl-thiazol-4-yl)-1-((S)-2-(5-phenyl-(1,3,4)oxadiazol-2-ylmethyl)-pyrrolidin-1-yl)-methanone)”

[3] = target: rat orexin 1 receptor (Rattus norvegicus, UniProt P56718); experiment: Rat orexin 1 receptor radioligand binding; details: read-out: rOX1 Ki
Protocol: as §1, §2

[4] = CHO cells stably expressing human orexin 1 receptor, competitive radioligand binding, apparent Ki
[5] = HEK293 stably expressing human orexin 2 receptor, [3H]-EMPA competitive binding, apparent Ki
[6] = HEK293 cells stably expressing rat orexin 1 receptor, competitive radioligand binding, apparent Ki

human orexin 2 receptor, sequence (O43614 whole entry): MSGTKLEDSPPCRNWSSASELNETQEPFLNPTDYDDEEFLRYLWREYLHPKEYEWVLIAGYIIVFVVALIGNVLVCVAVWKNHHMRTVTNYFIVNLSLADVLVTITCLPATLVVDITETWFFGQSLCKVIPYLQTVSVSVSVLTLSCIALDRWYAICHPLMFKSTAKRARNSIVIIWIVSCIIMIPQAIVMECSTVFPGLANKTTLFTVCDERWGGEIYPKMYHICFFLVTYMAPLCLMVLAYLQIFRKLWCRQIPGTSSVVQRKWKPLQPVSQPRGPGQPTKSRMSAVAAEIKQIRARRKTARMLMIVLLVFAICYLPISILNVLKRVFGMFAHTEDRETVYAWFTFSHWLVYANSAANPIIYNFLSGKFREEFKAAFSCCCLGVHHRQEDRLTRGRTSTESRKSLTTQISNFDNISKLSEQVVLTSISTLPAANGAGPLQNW

| Ki [1, 4] | Ki [2, 5] | Ki [3, 6] | SMILES | Ki [1] | Ki [2] | Ki [3] |
| --- | --- | --- | --- | --- | --- | --- |
| 109 nM | > 10000 nM | 52 nM | COc1ccc(C(=O)N2CC3CC(Oc4ccc(C(F)(F)F)cn4)C2C3)c(-n2nccn2)c1 (racemic) [Example 13] | – | – | – |
| 9 nM | 945 nM | 18 nM | O=C(c1cc(F)ccc1-c1ncccn1)N1CC2CC(Oc3ccc(C(F)(F)F)cn3)C1C2 (racemic) [Example 19, (R/S)-(5-fluoro-2-(pyrimidin-2-yl)phenyl)(6-((5-(trifluoromethyl)pyridin-2-yl)oxy)-2-azabicyclo[2.2.1]heptan-2-yl)methanone] | – | – | – |
| 47 nM | > 10000 nM | 55 nM | Cc1ccc(C(=O)N2C[C@H]3C[C@@H](Oc4ccc(C(F)(F)F)cn4)[C@@H]2C3)c(-n2nccn2)n1 [Example 29, (6-methyl-2-(2H-1,2,3-triazol-2-yl)pyridin-3-yl)((1S,4R,6R)-6-((5-(trifluoromethyl)pyridin-2-yl)oxy)-2-azabicyclo[2.2.1]heptan-2-yl)methanone] | – | – | – |
| 22 nM | 1700 nM | 19 nM | O=C(c1ncccc1-n1nccn1)N1C[C@H]2C[C@@H](Oc3ccc(C(F)(F)F)cn3)[C@@H]1C2 [Example 30, (3-(2H-1,2,3-triazol-2-yl)pyridin-2-yl)((1S,4R,6R)-6-((5-(trifluoromethyl)pyridin-2-yl)oxy)-2-azabicyclo[2.2.1]heptan-2-yl)methanone] | – | – | – |
| 265 nM | 1800 nM | 170 nM | CCOc1ccc(C)nc1C(=O)N1C[C@H]2C[C@@H](Oc3ccc(C(F)(F)F)cn3)[C@@H]1C2 [Example 37, (3-ethoxy-6-methylpyridin-2-yl)((1S,4R,6R)-6-((5-(trifluoromethyl)pyridin-2-yl)oxy)-2-azabicyclo[2.2.1]heptan-2-yl)methanone] | – | – | – |
| 8 nM | 690 nM | 8 nM | O=C(c1c(F)cccc1-c1ncccn1)N1C[C@H]2C[C@@H](Oc3ccc(C(F)(F)F)cn3)[C@@H]1C2 [Example 38, (2-fluoro-6-(pyrimidin-2-yl)phenyl)((1S,4R,6R)-6-((5-(trifluoromethyl)pyridin-2-yl)oxy)-2-azabicyclo[2.2.1]heptan-2-yl)methanone] | – | – | – |
| 17 nM | 108 nM | 132 nM | COc1cccc(-c2ccn[nH]2)c1C(=O)N1C[C@H]2C[C@@H](Oc3ccc(C(F)(F)F)cn3)[C@@H]1C2 [Example 39, (2-methoxy-6-(1H-pyrazol-5-yl)phenyl)((1S,4R,6R)-6-((5-(trifluoromethyl)pyridin-2-yl)oxy)-2-azabicyclo[2.2.1]heptan-2-yl)methanone] | – | – | – |
| 9 nM | 340 nM | 16 nM | COc1cccc(-c2ncccn2)c1C(=O)N1C[C@H]2C[C@@H](Oc3ccc(C(F)(F)F)cn3)[C@@H]1C2 [Example 40, (2-methoxy-6-(pyrimidin-2-yl)phenyl)((1S,4R,6R)-6-((5-(trifluoromethyl)pyridin-2-yl)oxy)-2-azabicyclo[2.2.1]heptan-2-yl)methanone] | – | – | – |
| 175 nM | 5800 nM | 184 nM | O=C(c1cccc2cc[nH]c12)N1C[C@H]2C[C@@H](Oc3ccc(C(F)(F)F)cn3)[C@@H]1C2 [Example 42, (1H-indol-7-yl)((1S,4R,6R)-6-((5-(trifluoromethyl)pyridin-2-yl)oxy)-2-azabicyclo[2.2.1]heptan-2-yl)methanone] | – | – | – |
| 42 nM | 2200 nM | 22 nM | O=C(c1ccc(F)cc1-n1nccn1)N1C[C@H]2C[C@@H](Oc3ccc(C(F)(F)F)cn3)[C@@H]1C2 [Example 44, (4-fluoro-2-(2H-1,2,3-triazol-2-yl)phenyl)((1S,4R,6R)-6-((5-(trifluoromethyl)pyridin-2-yl)oxy)-2-azabicyclo[2.2.1]heptan-2-yl)methanone] | – | – | – |
| 55 nM | 1500 nM | 60 nM | O=C(c1cccc(F)c1Br)N1C[C@H]2C[C@@H](Oc3ccc(C(F)(F)F)cn3)[C@@H]1C2 [Example 45, (2-bromo-3-fluorophenyl)((1S,4R,6R)-6-((5-(trifluoromethyl)pyridin-2-yl)oxy)-2-azabicyclo[2.2.1]heptan-2-yl)methanone] | – | – | – |
| 6 nM | 972 nM | 3 nM | O=C(c1cccc(F)c1-c1ncccn1)N1C[C@H]2C[C@@H](Oc3ccc(Br)cn3)[C@@H]1C2 [Example 48, ((1S,4R,6R)-6-((5-bromopyridin-2-yl)oxy)-2-azabicyclo[2.2.1]heptan-2-yl)(3-fluoro-2-(pyrimidin-2-yl)phenyl)methanone] | – | – | – |
| 6 nM | 507 nM | 6 nM | O=C(c1ccccc1-n1nccn1)N1C[C@H]2C[C@@H](Oc3ccc(Br)cn3)[C@@H]1C2 [Example 49, (2-(2H-1,2,3-triazol-2-yl)phenyl)((1S,4R,6R)-6-((5-bromopyridin-2-yl)oxy)-2-azabicyclo[2.2.1]heptan-2-yl)methanone] | – | – | – |
| 9 nM | 670 nM | 7 nM | Cc1ccc(-n2nccn2)c(C(=O)N2C[C@H]3C[C@@H](Oc4ccc(Br)cn4)[C@@H]2C3)n1 [Example 50, ((1S,4R,6R)-6-((5-bromopyridin-2-yl)oxy)-2-azabicyclo[2.2.1]heptan-2-yl)(6-methyl-3-(2H-1,2,3-triazol-2-yl)pyridin-2-yl)methanone] | – | – | – |
| – | – | – | Cc1ccc(-n2nccn2)c(C(=O)N2C[C@H]3C[C@@H](Nc4ccc(C(F)(F)F)cn4)[C@@H]2C3)n1 [Example 54, (6-methyl-3-(2H-1,2,3-triazol-2-yl)pyridin-2-yl)((1S,4S,6R)-6-((5-(trifluoromethyl)pyridin-2-yl)amino)-2-azabicyclo[2.2.1]heptan-2-yl)methanone] | 6 nM | 132 nM | 5 nM |
| 3 nM | 46 nM | 3 nM | Cc1cccc(C(=O)N2C[C@H]3C[C@@H](Nc4ccc(C(F)(F)F)cn4)[C@@H]2C3)c1-n1nccn1 [Example 55, (3-methyl-2-(2H-1,2,3-triazol-2-yl)phenyl)((1S,4S,6R)-6-((5-(trifluoromethyl)pyridin-2-yl)amino)-2-azabicyclo[2.2.1]heptan-2-yl)methanone] | – | – | – |
| 10 nM | 192 nM | 8 nM | CCOc1ccc2cccnc2c1C(=O)N1C[C@H]2C[C@@H](Nc3ccc(C(F)(F)F)cn3)[C@@H]1C2 [Example 56, (7-ethoxyquinolin-8-yl)((1S,4S,6R)-6-((5-(trifluoromethyl)pyridin-2-yl)amino)-2-azabicyclo[2.2.1]heptan-2-yl)methanone] | – | – | – |
| 5 nM | 252 nM | 6 nM | O=C(c1cc(F)ccc1-n1nccn1)N1C[C@H]2C[C@@H](Nc3ccc(C(F)(F)F)cn3)[C@@H]1C2 [Example 57, (5-fluoro-2-(2H-1,2,3-triazol-2-yl)phenyl)((1S,4S,6R)-6-((5-(trifluoromethyl)pyridin-2-yl)amino)-2-azabicyclo[2.2.1]heptan-2-yl)methanone] | – | – | – |
| 2 nM | 181 nM | 4 nM | O=C(c1cc(F)ccc1-c1ncccn1)N1C[C@H]2C[C@@H](Nc3ccc(C(F)(F)F)cn3)[C@@H]1C2 [Example 58, (5-fluoro-2-(pyrimidin-2-yl)phenyl)((1S,4S,6R)-6-((5-(trifluoromethyl)pyridin-2-yl)amino)-2-azabicyclo[2.2.1]heptan-2-yl)methanone] | – | – | – |
| 9 nM | 213 nM | 6 nM | O=C(c1ccccc1-n1nccn1)N1C[C@H]2C[C@@H](Nc3cnc(C(F)(F)F)cn3)[C@@H]1C2 [Example 59, (2-(2H-1,2,3-triazol-2-yl)phenyl)((1S,4S,6R)-6-((5-(trifluoromethyl)pyrazin-2-yl)amino)-2-azabicyclo[2.2.1]heptan-2-yl)methanone] | – | – | – |

| SMILES | Ki [1, 4] | Ki [2, 5] | Ki [3, 6] | Ki [1] | Ki [2] | Ki [3] |
| --- | --- | --- | --- | --- | --- | --- |
| Cc1ccc(C(=O)N2C[C@H]3C[C@@H](Oc4ccc(C(F)(F)F)cn4)[C@@H]2C3)c(-n2ccnn2)n1 [Example 34, (6-methyl-2-(1H-1,2,3-triazol-1-yl)pyridin-3-yl)((1S,4R,6R)-6-((5-(trifluoromethyl)pyridin-2-yl)oxy)-2-azabicyclo[2.2.1]heptan-2-yl)methanone] | 462 nM | 1100 nM | 117 nM | – | – | – |
